Tests used:
[1] = Oral bioavailability in dog at 3 mg/kg; type: ADME, organism-based, Canis lupus familiaris; details: in vivo
[2] = Cmax in Sprague-Dawley rat plasma with CCI induced thermal hyperalgesia at 0.1 mg/kg, po measured at 5.75 hrs post dose; type: ADME, organism-based; parameters: route oral, dose 0.1 mg/kg, time 5.75 hrs
[3] = Apparent elimination half life in dog at 2 mg/kg, iv; type: ADME, organism-based, Canis lupus familiaris; details: in vivo, read-out: betat1/2(app) (converted)
[4] = Ratio of drug concentration in spinal cord to plasma of overnight fasted Sprague-Dawley rat model with streptozotocin induced diabetic peripheral neuropathic mechanical allodynia at 1 mg/kg, po measured at 5.5 hrs post dose; type: ADME, organism-based
Rattus norvegicus [5] = experiment: Analgesic activity in CCI induced thermal hyperalgesia Sprague-Dawley rat model assessed as efficacy at 0.3 mg/kg, po measured at 5.75 hrs post dose; type: functional
[6] = Permeability of compound at pH 7.4 measured after 4 hrs by PAMPA assay; type: ADME; details: read-out: permeability
[7] = Cmax in rat at 3 mg/kg, po; type: ADME, organism-based; parameters: route oral, dose 3 mg/kg; details: in vivo
[8] = target: Solute carrier organic anion transporter family member 1B3 (Homo sapiens, UniProt Q9NPD5); experiment: Inhibition of OATP1B3 (unknown origin)
[9] = Ratio of drug concentration in spinal cord to plasma in CCI induced thermal hyperalgesia Sprague-Dawley rat model at 1 mg/kg, po measured at 5.75 hrs post dose; type: ADME, organism-based
[10] = Drug concentration in Sprague-Dawley rat spinal cord with CCI induced thermal hyperalgesia at 0.3 mg/kg, po measured at 5.75 hrs post dose; type: ADME, organism-based; details: read-out: Ct
[11] = Displacement of 3H-LP-927443 from AAK1 in mouse brain membrane homogenate assessed as inhibition constant at 1 uM incubated for 1 hr by liquid scintillation counter analysis; type: cell membranes
[12] = Cmax in overnight fasted Sprague-Dawley rat plasma with streptozotocin induced diabetic peripheral neuropathic mechanical allodynia at 0.3 mg/kg, po measured at 5.5 hrs post dose; type: ADME, organism-based; parameters: route oral, time 5.5 hrs, dose 0.3 mg/kg
[13] = Cmax in naive Sprague-Dawley rat plasma at 30 mg/kg, po measured at 5.25 hrs post dose; type: ADME, organism-based; parameters: route oral, time 5.25 hrs, dose 30 mg/kg
[14] = Cmax in naive Sprague-Dawley rat plasma at 10 mg/kg, po measured at 5.25 hrs post dose; type: ADME, organism-based; parameters: route oral, dose 10 mg/kg, time 5.25 hrs
[15] = Volume of distribution at steady state in monkey at 2 mg/kg, iv; type: ADME, organism-based, Macaca mulatta; details: rhesus monkey, in vivo, read-out: Vdss
[16] = Cmax in naive Sprague-Dawley rat plasma at 3 mg/kg, po measured at 5.25 hrs post dose; type: ADME, organism-based; parameters: route oral, time 5.25 hrs, dose 3 mg/kg
[17] = Metabolic stability in rat liver microsomes assessed as CYP450-mediated metabolism by measuring parent compound remaining at 0.5 uM incubated for 10 mins in presence of NADPH by LC-MS/MS analysis; type: ADME; details: read-out: Stability
[18] = Tmax in mouse at 3 mg/kg, po; type: ADME, organism-based; details: in vivo
[19] = target: Sodium-dependent noradrenaline transporter (Homo sapiens, UniProt P23975); experiment: Inhibition of NET (unknown origin); type: toxicity
[20] = AUC (infinity) in monkey at 2 mg/kg, iv; type: ADME, organism-based, Macaca mulatta; parameters: time infinity, route intravenous, dose 2 mg/kg; details: rhesus monkey, in vivo
[21] = Metabolic stability in dog liver microsomes assessed as half life; type: ADME, Canis lupus familiaris, Microsome
[22] = Toxicity in naive Sprague-Dawley rat assessed as motor impairment at 3 to 30 mg/kg, po measured after 5 hrs by rotarod test; type: organism-based; details: in vivo, dose 3-30 mg/kg
[23] = Drug concentration in overnight fasted Sprague-Dawley rat spinal cord with streptozotocin induced diabetic peripheral neuropathic mechanical allodynia at 0.3 mg/kg, po measured at 5.5 hrs post dose; type: ADME, organism-based; details: read-out: Ct
[24] = Solubility of the compound in ethanol; type: physicochemical
[25] = Cmax in overnight fasted Sprague-Dawley rat plasma with streptozotocin induced diabetic peripheral neuropathic mechanical allodynia at 1 mg/kg, po measured at 5.5 hrs post dose; type: ADME, organism-based; parameters: route oral, time 5.5 hrs, dose 1 mg/kg
Rattus norvegicus [26] = experiment: Analgesic activity in streptozotocin induced diabetic peripheral neuropathic mechanical allodynia in overnight fasted Sprague-Dawley rat model assessed as reduction in pain response at 3 mg/kg, po measured after 5.5 hrs post treatment; type: functional; parameters: scale not given: the % may be the effect or the level left
[27] = Ratio of drug concentration in spinal cord to plasma in Sprague-Dawley rat at 30 mg/kg, po measured at 5.25 hrs post dose; type: ADME, organism-based
[28] = Permeability across apical to basolateral side in human Caco-2 cells at 3 uM measured after 2 hrs by LC-MS/MS analysis; type: ADME, cell-based; details: read-out: permeability
[29] = MRT in monkey at 2 mg/kg, iv; type: ADME, organism-based, Macaca mulatta; details: rhesus monkey, in vivo
[30] = target: Organic anion transporter 3 (Homo sapiens, UniProt Q8TCC7); experiment: Inhibition of OAT3 (unknown origin)
[31] = AUC (infinity) in dog at 3 mg/kg, po; type: ADME, organism-based, Canis lupus familiaris; parameters: route oral, time infinity, dose 3 mg/kg; details: in vivo
[32] = Oral bioavailability in rat at 3 mg/kg; type: ADME, organism-based; details: in vivo
[33] = Drug uptake in Spinal cord of CCI induced thermal hyperalgesia Sprague-Dawley rat model assessed as spinal occupancy at 0.3 mg/kg, po measured at 5.75 hrs post dose in presence of [3H]BMT-046091; type: ADME, organism-based; details: in vivo
Cytochrome P450 2D6 = Cytochrome P450 2D6 (Homo sapiens, UniProt P10635); experiment: Inhibition of CYP2D6 (unknown origin); type: ADME
[34] = Oral bioavailability in mouse at 3 mg/kg; type: ADME, organism-based; details: in vivo
[35] = Cmax in monkey at 3 mg/kg, po; type: ADME, organism-based, Macaca mulatta; parameters: route oral, dose 3 mg/kg; details: rhesus monkey, in vivo
[36] = Solubility of the compound in acetate at pH 4.6 using crystalline form of sample; type: physicochemical
[37] = Drug concentration in overnight fasted Sprague-Dawley rat spinal cord with streptozotocin induced diabetic peripheral neuropathic mechanical allodynia at 3 mg/kg, po measured at 5.5 hrs post dose; type: ADME, organism-based; details: read-out: Ct
[38] = Drug concentration in Sprague-Dawley rat spinal cord with CCI induced thermal hyperalgesia at 0.1 mg/kg, po measured at 5.75 hrs post dose; type: ADME, organism-based; details: read-out: Ct
[39] = Tmax in rat at 3 mg/kg, po; type: ADME, organism-based; details: in vivo
[40] = Ratio of drug concentration in spinal cord to plasma of overnight fasted Sprague-Dawley rat model with streptozotocin induced diabetic peripheral neuropathic mechanical allodynia at 3 mg/kg, po measured at 5.5 hrs post dose; type: ADME, organism-based
[41] = target: AP2-associated protein kinase 1 (Homo sapiens, UniProt Q2M2I8); experiment: Inhibition of GST-Xa tagged human AAK1 (30 to 330 residues) expresssed in bacteria using (5-FAM)-Aha-KEEQSQITSQVTGQIGWR-NH2 peptide as substrate incubated for 3 hrs in presence of ATP by electrophoretic analysis
Cytochrome P450 3A4 = Cytochrome P450 3A4 (Homo sapiens, UniProt P08684); experiment: Time dependent inhibition of CYP3A4 (unknown origin) using MDZ as substrate measured at 5 mins; type: ADME
[42] = Cmax in overnight fasted Sprague-Dawley rat plasma with streptozotocin induced diabetic peripheral neuropathic mechanical allodynia at 0.1 mg/kg, po measured at 5.5 hrs post dose; type: ADME, organism-based; parameters: route oral, time 5.5 hrs, dose 0.1 mg/kg
[43] = Drug uptake in Spinal cord of CCI induced thermal hyperalgesia Sprague-Dawley rat model assessed as spinal occupancy at 1 mg/kg, po measured at 5.75 hrs post dose in presence of [3H]BMT-046091; type: ADME, organism-based; details: in vivo
Homo sapiens = species on record: Homo sapiens; experiment: Inhibition of calcium channel (unknown origin) at 10 uM by electrophysiological method relative to control
[44] = target: Citron Rho-interacting kinase (Homo sapiens, UniProt O14578); experiment: Inhibition of CRIK (unknown origin)

Chain of Sodium-dependent noradrenaline transporter (P23975 whole entry): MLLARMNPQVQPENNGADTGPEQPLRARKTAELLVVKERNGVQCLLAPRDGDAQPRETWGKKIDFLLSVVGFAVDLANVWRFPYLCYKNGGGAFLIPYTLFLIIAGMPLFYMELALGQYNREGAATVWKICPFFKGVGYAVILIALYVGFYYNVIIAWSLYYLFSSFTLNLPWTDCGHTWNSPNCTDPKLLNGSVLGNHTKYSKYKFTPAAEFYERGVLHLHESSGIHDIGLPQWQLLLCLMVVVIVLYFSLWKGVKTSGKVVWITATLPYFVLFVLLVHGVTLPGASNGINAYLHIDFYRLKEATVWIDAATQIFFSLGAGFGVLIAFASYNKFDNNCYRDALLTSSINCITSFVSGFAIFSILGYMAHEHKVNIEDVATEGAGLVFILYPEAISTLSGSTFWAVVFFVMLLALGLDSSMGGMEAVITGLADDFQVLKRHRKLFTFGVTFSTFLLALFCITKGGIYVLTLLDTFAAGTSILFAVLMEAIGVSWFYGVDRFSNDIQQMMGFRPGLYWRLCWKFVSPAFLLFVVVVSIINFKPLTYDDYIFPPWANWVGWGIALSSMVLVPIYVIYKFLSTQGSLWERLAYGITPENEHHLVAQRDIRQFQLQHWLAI
Chain of AP2-associated protein kinase 1 (Q2M2I8 whole entry, the tested form may be a part): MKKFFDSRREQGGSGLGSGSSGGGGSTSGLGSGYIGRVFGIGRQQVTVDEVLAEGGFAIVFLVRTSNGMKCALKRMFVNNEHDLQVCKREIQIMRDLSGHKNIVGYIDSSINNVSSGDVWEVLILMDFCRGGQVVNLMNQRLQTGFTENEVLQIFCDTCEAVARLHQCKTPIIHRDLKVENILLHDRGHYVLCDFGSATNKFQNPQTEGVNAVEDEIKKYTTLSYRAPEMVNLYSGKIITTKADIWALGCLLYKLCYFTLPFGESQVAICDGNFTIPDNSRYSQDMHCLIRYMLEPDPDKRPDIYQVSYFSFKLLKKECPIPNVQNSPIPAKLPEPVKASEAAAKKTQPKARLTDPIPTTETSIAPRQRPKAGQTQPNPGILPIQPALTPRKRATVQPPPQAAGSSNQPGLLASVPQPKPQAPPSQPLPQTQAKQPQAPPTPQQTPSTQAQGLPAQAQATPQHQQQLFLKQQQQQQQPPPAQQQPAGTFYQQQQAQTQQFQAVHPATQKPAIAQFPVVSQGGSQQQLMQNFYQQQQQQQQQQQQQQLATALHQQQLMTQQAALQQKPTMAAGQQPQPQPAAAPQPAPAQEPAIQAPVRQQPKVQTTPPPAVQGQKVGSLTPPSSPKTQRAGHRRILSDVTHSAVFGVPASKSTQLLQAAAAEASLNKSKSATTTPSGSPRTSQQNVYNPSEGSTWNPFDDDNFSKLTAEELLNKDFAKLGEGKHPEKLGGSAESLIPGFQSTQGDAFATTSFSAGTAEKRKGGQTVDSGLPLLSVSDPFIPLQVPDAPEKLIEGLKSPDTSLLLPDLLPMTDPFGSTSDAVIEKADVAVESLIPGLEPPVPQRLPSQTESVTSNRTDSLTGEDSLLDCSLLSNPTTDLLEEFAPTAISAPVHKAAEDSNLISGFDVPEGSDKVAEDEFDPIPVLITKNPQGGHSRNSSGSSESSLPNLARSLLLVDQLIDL
Chain of Solute carrier organic anion transporter family member 1B3 (Q9NPD5 whole entry): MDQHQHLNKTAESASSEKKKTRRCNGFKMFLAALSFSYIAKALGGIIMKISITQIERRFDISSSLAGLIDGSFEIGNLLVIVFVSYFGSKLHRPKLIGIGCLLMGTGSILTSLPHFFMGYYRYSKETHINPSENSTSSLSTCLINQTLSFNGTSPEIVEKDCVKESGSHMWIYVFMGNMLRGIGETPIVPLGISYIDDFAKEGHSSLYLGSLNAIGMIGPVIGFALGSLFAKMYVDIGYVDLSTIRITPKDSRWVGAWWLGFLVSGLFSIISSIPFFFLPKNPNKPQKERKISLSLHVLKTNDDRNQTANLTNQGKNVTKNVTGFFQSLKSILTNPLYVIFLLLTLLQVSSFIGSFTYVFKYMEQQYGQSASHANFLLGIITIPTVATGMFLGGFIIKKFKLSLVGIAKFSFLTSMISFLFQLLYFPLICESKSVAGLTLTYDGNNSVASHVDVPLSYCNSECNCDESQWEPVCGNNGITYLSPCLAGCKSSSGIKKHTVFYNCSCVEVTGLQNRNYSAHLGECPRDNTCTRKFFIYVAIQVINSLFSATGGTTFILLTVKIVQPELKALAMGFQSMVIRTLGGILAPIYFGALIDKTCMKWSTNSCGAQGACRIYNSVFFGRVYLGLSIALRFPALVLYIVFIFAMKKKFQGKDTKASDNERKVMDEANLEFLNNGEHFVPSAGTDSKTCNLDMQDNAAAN
Chain of Cytochrome P450 2D6 (P10635 whole entry): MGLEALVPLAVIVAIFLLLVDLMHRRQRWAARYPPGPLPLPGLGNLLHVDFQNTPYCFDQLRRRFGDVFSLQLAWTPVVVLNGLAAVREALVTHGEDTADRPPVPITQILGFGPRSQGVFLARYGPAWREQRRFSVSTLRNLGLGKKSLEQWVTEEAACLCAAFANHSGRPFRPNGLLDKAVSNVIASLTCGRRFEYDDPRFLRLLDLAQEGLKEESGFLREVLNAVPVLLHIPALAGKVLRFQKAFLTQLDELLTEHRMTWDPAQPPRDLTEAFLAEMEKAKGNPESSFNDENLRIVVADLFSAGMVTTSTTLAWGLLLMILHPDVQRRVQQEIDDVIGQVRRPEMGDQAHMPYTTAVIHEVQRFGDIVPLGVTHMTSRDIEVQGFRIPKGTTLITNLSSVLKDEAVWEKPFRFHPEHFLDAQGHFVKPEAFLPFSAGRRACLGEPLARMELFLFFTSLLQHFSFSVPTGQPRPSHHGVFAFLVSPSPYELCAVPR
Chain of Organic anion transporter 3 (Q8TCC7 whole entry): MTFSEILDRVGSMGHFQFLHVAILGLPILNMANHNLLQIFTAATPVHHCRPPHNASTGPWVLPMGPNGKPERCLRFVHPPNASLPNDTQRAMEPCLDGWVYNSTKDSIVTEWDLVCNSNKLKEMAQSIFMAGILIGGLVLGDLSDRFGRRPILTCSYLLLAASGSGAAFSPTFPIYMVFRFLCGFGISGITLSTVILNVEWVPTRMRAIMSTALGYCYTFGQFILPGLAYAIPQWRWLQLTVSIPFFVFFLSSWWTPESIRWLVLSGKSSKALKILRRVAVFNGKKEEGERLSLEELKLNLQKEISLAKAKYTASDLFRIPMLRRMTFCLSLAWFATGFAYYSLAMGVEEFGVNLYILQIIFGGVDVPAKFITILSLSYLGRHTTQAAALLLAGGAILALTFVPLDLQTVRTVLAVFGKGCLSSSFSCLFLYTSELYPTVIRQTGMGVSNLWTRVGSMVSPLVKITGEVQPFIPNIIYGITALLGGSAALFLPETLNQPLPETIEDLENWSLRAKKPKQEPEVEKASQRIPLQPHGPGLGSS
Chain of Cytochrome P450 3A4 (P08684 whole entry): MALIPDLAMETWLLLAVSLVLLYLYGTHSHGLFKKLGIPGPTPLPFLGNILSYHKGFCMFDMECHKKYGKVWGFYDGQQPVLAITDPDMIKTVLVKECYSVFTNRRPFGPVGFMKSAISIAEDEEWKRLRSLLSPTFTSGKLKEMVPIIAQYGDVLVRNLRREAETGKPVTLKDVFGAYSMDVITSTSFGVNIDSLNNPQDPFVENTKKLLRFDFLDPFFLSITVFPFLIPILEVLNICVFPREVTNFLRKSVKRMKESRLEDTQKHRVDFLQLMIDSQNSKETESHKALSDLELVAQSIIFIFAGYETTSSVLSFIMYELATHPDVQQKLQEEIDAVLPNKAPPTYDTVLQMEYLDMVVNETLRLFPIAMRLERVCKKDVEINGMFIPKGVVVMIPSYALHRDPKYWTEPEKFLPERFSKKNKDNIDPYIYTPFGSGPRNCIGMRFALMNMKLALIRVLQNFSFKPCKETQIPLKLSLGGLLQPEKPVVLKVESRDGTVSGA

bioavailability [1]: 87%
Cmax [2]: 5 nM
half-life [3]: 4.8 h
Kp at 5.5 h [4]: 9
Papp at 4 h [6]: 72.4 ×10⁻⁶ cm/s
Cmax [7]: 60 ng/mL
IC50 [8]: > 30000 nM
Kp at 5.75 h [9]: 19
concentration at 5.75 h [10]: 431 nM
Ki [11]: 0.31 nM
Cmax [12]: 25 nM
Cmax [13]: 1650 nM
Cmax [14]: 780 nM
Vd [15]: 20.6 L/kg
Cmax [16]: 200 nM
remaining at 10 min, 0.5 µM [17]: 92%
Tmax [18]: 5 h
AUC(0-inf) [20]: 980 ng·h/mL
half-life [21]: 0.5 h
concentration at 5.5 h [23]: 206 nM
solubility [24]: > 50 mg/mL
Cmax [25]: 92 nM
Kp at 5.25 h [27]: 20
Papp A→B at 2 h, 3 µM [28]: 19.9 ×10⁻⁶ cm/s
MRT [29]: 8.5 h
IC50 [30]: > 30000 nM
AUC(0-inf) [31]: 1630 ng·h/mL
bioavailability [32]: 50%
Occ [33]: 83%
IC50 (Cytochrome P450 2D6): > 20000 nM
bioavailability [34]: 100%
Cmax [35]: 20 ng/mL
solubility thermodynamic [36]: > 10 mg/mL
concentration at 5.5 h [37]: 2370 nM
concentration at 5.75 h [38]: 214 nM
Tmax [39]: 3 h
Kp at 5.5 h [40]: 7
IC50 [41]: 2 nM
IC50 (Cytochrome P450 3A4): > 40000 nM
Cmax [42]: 6 nM
Occ [43]: 96%
inhibition (Homo sapiens): 40%
IC50 [44]: 410 nM
Compound: CC(C)C[C@](C)(N)COc1ccc(-c2ccnc(C(F)F)c2)nc1C(F)F [PILAVAPADIN]
Efficacy (Rattus norvegicus [5]): 68%
IC50 [19]: 390 nM
Activity [22]: Non-Toxic
Activity (Rattus norvegicus [26]): 60%

Reference: ChEMBL document CHEMBL5046296 (J Med Chem, 2022)
